Laboratory results published in patent publication US20230398218A1, “RAS NEOANTIGENS AND USES THEREOF” (priority 2020, published 2023).
Like-named read-outs stand apart in the source and are kept apart here. No end group written: not given here.

Key:
HLA A03.01 [1] = molecular target: T1, HLA A03.01 (Homo sapiens, UniProt P04439); assay: HLA-peptide elution and targeted MS/MS (PRM) presentation assay; type: cell-based; set-up: expressed in transfected cells; SW620 cells (lentiviral transduction)
Protocol: (§1) To assess whether antigens could be processed and presented from the larger polypeptide context, peptides eluted from HLA molecules isolated from cells expressing the genes of interest were analyzed by tandem mass spectrometry (MS/MS).
For analysis of presentation of RAS neoantigens, cell lines were utilized that have RAS mutations naturally or were lentivirally transduced to express the mutated RAS gene. HLA molecules were either isolated based on the natural expression of the cell lines or the cell lines were lentivirally transduced or transiently transfected to express the HLA of interest. […] Greater than 50 million cells expressing peptides encoded by a mutant RAS peptide were cultured and peptides were eluted from HLA-peptide complexes using an acid wash. Eluted peptides were then analyzed by targeted MS/MS with parallel reaction monitoring (PRM). […] Endogenous peptide spectrum is shown in the top panel and the corresponding stable heavy-isotopically labeled spectrum is shown in the bottom panel.

[2] = tested on: T2 or HLA-A0201 transfected C1Rs pulsed with peptide; assay: IFNγ ELISpot assay; type: cell-based, human; details: number of donors responding out of 2; HLA-A02:01 peptides
Protocol: In some embodiments the immunogenicity is measured by measuring a protein or peptide expressed by the T cell, using ELISpot assay. Peptide-specific T cells are functionally enumerated using the ELISpot assay (BD Biosciences), which measures the release of IFNγ from T cells on a single cell basis. Target cells (T2 or HLA-A0201 transfected C1Rs) were pulsed with 10 μM peptide for one hour at 37 degrees C., and washed three times. 1×10^5 peptide-pulsed targets are co-cultured in the ELISPOT plate wells with varying concentrations of T cells (5×10^2 to 2×10^3) taken from the immunogenicity culture. Plates are developed according to the manufacturer's protocol, and analyzed on an ELISPOT reader (Cellular Technology Ltd.) with accompanying software. Spots corresponding to the number of IFN gamma-producing T cells are reported as the absolute number of spots per number of T cells plated. T cells expanded on modified peptides are tested not only for their ability to recognize targets pulsed with the modified peptide, but also for their ability to recognize targets pulsed with the parent peptide. Some exemplary data are shown below in Table 13.

HLA A02.01 [3] = molecular target: T2, HLA A02.01 (Homo sapiens, UniProt P04439, D140Y/D185E/D98H/E176V/E277Q/G131W/G231S/I119V/I121R/I166T/I218V/L300P/L318F/N151K/N90K/P208A/P217A/Q86G/Q94H/R138H/R169H/T345S); assay: MHC-I peptide binding stability assay (pMHC-I dissociation half-life); details: HLA allele A02.01
Protocol: (§2) Briefly, synthetic genes encoding biotinylated MHC-I heavy and light chains are expressed in E. coli and purified from inclusion bodies using standard methods. The light chain (β2m) is radio-labeled with iodine (1251), and combined with the purified MHC-I heavy chain and peptide of interest at 18° C. to initiate pMHC-I complex formation. These reactions are carried out in streptavidin coated microplates to bind the biotinylated MHC-I heavy chains to the surface and allow measurement of radiolabeled light chain to monitor complex formation. Dissociation is initiated by addition of higher concentrations of unlabeled light-chain and incubation at 37° C. Stability is defined as the length of time in hours it takes for half of the complexes to dissociate, as measured by scintillation counts.

HLA A02.01 [4] = molecular target: T2, HLA A02.01; assay: MHC-I peptide binding affinity assay (displacement of radiolabeled reference peptide)
HLA A24.02 [5] = assay: as above; set-up: species or system human; details: Table 11, EGFR T790M peptides; HLA allele A24.02
From the text: (§3) 31:813 (1994). […] 149:1896 (1992)).

HLA A01.01 [6] = molecular target: T3, HLA A01.01 (Homo sapiens, UniProt P04439, A114D/A174V/A182V/D101N/D185E/E176A/E190D/L180R/Q94H/R68K/S129P/T187R/V100A/V91M/W191G); assay: MHC-I peptide binding stability assay (pMHC-I dissociation half-life); details: HLA allele A01.01
Protocol: as §2

HLA A01.01 [7] = molecular target: T3, HLA A01.01; assay: MHC-I peptide binding affinity assay (displacement of radiolabeled reference peptide)
From the text: as §3

HLA A03.01 [8] = molecular target: T1, HLA A03.01; assay: MHC-I peptide binding stability assay (pMHC-I dissociation half-life); set-up: made in house; host or cells: E. coli; details: Table 10, BTK C481S peptides; HLA allele A03.01
Protocol: as §2

HLA A03.01 [9] = molecular target: T1, HLA A03.01; assay: MHC-I peptide binding affinity assay (displacement of radiolabeled reference peptide); set-up: made in house; host or cells: E. coli; details: Table 10, BTK C481S peptides; HLA allele A03.01
From the text: as §3

[10] = tested on: MHC protein encoded by HLA-C03:03 allele; assay: Identification of MHC-bound epitope by mass spectrometry; type: cell-based, human; details: MHC encoded by HLA-C03:03 allele
From the text: (§4) In some embodiments, antigenic peptides comprising an epitope may be identified by mass spectrometry to be bound to an MHC encoded by an HLA.
(§5) Provided herein are KRAS epitopes each of which specifically can bind to the MHC protein encoded by the alleles indicated in right hand column in the same row of Table 1, that have been identified to bind to the MHC protein by mass spectrometry, and that each epitope is presented to T cells by association with the MHC protein in the respective right hand column for each row in Table 1.
as §1

[11] = tested on: MHC protein encoded by HLA-C03:04 allele; assay: as above; type: cell-based, human; details: MHC encoded by HLA-C03:04 allele
From the text: as §4, §5, §1

HLA B08.01 = HLA B08.01 (Homo sapiens, UniProt P01889, A93T/A95T/D138N/E176V/E187T/K202T/Q94N/R180D/S35A/V36M/Y33D/Y91F); details: read-out: Affinity
From the text: As used herein, the term “affinity” refers to a measure of the strength of binding between two members of a binding pair, for example, an HLA-binding peptide and a class I or II HLA. K D is the dissociation constant and has units of molarity. The affinity constant is the inverse of the dissociation constant. An affinity constant is sometimes used as a generic term to describe this chemical entity. It is a direct measure of the energy of binding. Affinity may be determined experimentally, for example by surface plasmon resonance (SPR) using commercially available Biacore SPR units. […] Likewise, ln(IC50) refers to the natural log of the IC50. Koff refers to the off-rate constant, for example, for dissociation of an HLA-binding peptide and a class I or II HLA. […] Given the conditions in which the assays are run (i.e., limiting HLA protein and labeled reference peptide concentrations), these values approximate KD values. […] Alternatively, binding can be expressed relative to binding by a reference standard peptide. For example, can be based on its IC50, relative to the IC50 of a reference standard peptide.
In brief, MHCI complexes were prepared and bound to radiolabeled reference peptides. Peptides were incubated at varying concentrations with these complexes for 2 days, and the amount of remaining radiolabeled peptide bound to MHCI was measured using size exclusion gel-filtration.

HLA A24.02 [12] = assay: MHC-I peptide binding stability assay (pMHC-I dissociation half-life); set-up: species or system human; details: Table 11, EGFR T790M peptides; HLA allele A24.02
Protocol: as §2

HLA B08.02 = assay: MHC-I peptide binding affinity assay (displacement of radiolabeled reference peptide); set-up: species or system human; details: Table 11, EGFR T790M peptides; HLA allele B08.02
From the text: as §3

HLA B07.02 = HLA B07.02 (Homo sapiens, UniProt P01889); assay: as above; details: Table 11, EGFR T790M peptides; HLA allele B07.02
From the text: as §3

[13] = Table 11, EGFR T790M peptides, HLA allele A02.01, read-out: Affinity
[14] = Table 10, BTK C481S peptides, HLA allele A01.01, read-out: Affinity

VVVGAVGVGK
HLA-eluted peptide detected by mass spectrometry (HLA A03.01 [1]; 293T cells lentivirally transduced with RAS G12V mutation and HLA-A*03:01 gene): detected
HLA-eluted peptide detected by mass spectrometry (HLA A03.01 [1]; SW620 cells naturally expressing RAS G12V, lentivirally transduced with HLA-A*03:01 gene): detected

FLGYLILGV
Immunogenicity (# donors/2) [2]: 1 # donors/2

CC[C@H](C)[C@H](N)C(=O)N[C@@H](CCSC)C(=O)N[C@@H](CCC(N)=O)C(=O)N[C@@H](CC(C)C)C(=O)N[C@@H](CCSC)C(=O)N1CCC[C@H]1C(=O)N[C@@H](Cc1ccccc1)C(=O)NCC(=O)N[C@@H](CS)C(=O)N[C@@H](CC(C)C)C(=O)O
Stability (half-life (hr.)) (HLA A02.01 [3]; Table 11, EGFR T790M peptides): 30.94 min
IC50 (HLA A02.01 [4]; [13]): 0.653 µM
IC50 (HLA A24.02 [5]): 14.1 µM

CSCC[C@H](N)C(=O)N[C@@H](C)C(=O)N[C@@H](CC(N)=O)C(=O)NCC(=O)N[C@@H](CO)C(=O)N[C@@H](CC(C)C)C(=O)N[C@@H](CC(C)C)C(=O)N[C@@H](CC(N)=O)C(=O)N[C@@H](Cc1ccc(O)cc1)C(=O)O
Stability (half-life (hr.)) (HLA A01.01 [6]; Table 10, BTK C481S peptides): 12.98 min
IC50 (HLA A01.01 [7]; [14]): 0.439 µM
Stability (half-life (hr.)) (HLA A03.01 [8]): 14.3 min
IC50 (HLA A03.01 [9]): 0.0356 µM

LIMQLMPFG
IC50 (HLA A02.01 [4]; [13]): 3.34 µM

GAVGVGKSA
binding to MHC protein, identified by mass spectrometry [10]: specifically binds

IMQLMPFGC
Stability (half-life (hr.)) (HLA A02.01 [3]; Table 11, EGFR T790M peptides): 22.21 min
IC50 (HLA A02.01 [4]; [13]): 1.21 µM

FQYPEFSIEL
Immunogenicity (# donors/2) [2]: 1 # donors/2

GACGVGKSA
binding to MHC protein, identified by mass spectrometry [11]: specifically binds

RLIWLVKMV
Immunogenicity (# donors/2) [2]: 1 # donors/2

CC[C@H](C)[C@H](NC(=O)[C@@H](N)CC(C)C)C(=O)N[C@@H](CCSC)C(=O)N[C@@H](CCC(N)=O)C(=O)N[C@@H](CC(C)C)C(=O)N[C@@H](CCSC)C(=O)N1CCC[C@H]1C(=O)N[C@@H](Cc1ccccc1)C(=O)NCC(=O)N[C@@H](CS)C(=O)O
Stability (half-life (hr.)) (HLA A02.01 [3]; Table 11, EGFR T790M peptides): 22.88 min
IC50 (HLA A02.01 [4]; [13]): 0.132 µM

CSCC[C@H](NC(=O)[C@H](CCC(=O)O)NC(=O)[C@H](CCCNC(=N)N)NC(=O)[C@H](CC(C)C)NC(=O)[C@H](Cc1ccc(O)cc1)NC(=O)[C@H](CC(N)=O)NC(=O)[C@H](CC(C)C)NC(=O)[C@H](CC(C)C)NC(=O)[C@@H](N)CO)C(=O)O
Stability (half-life (hr.)) (HLA A02.01 [3]; Table 10, BTK C481S peptides): 182.6 min
IC50 (HLA B08.01): 0.96 µM

STVQLIMQL
IC50 (HLA A02.01 [4]): 7.26 µM

LLANGRMPTV
Immunogenicity (# donors/2) [2]: 2 # donors/2

FLTPKKLQCV
Immunogenicity (# donors/2) [2]: 1 # donors/2

CC[C@H](C)[C@H](NC(=O)[C@H](CC(C)C)NC(=O)[C@H](CCC(N)=O)NC(=O)[C@@H](N)C(C)C)C(=O)N[C@@H](CCSC)C(=O)N[C@@H](CCC(N)=O)C(=O)N[C@@H](CC(C)C)C(=O)N[C@@H](CCSC)C(=O)N1CCC[C@H]1C(=O)N[C@@H](Cc1ccccc1)C(=O)O
IC50 (HLA A02.01 [4]; [13]): 4.94 µM
IC50 (HLA A24.02 [5]): 4.1 µM

LTSTVQLIM
Stability (half-life (hr.)) (HLA A01.01 [6]; Table 11, EGFR T790M peptides): 6.222 min
IC50 (HLA A01.01 [7]; Table 11, EGFR T790M peptides, HLA allele A01.01, read-out: Affinity): 2.89 µM

YMANGSLLNY
Stability (half-life (hr.)) (HLA A01.01 [6]; Table 10, BTK C481S peptides): 51.97 min
IC50 (HLA A01.01 [7]; [14]): 0.0132 µM
Stability (half-life (hr.)) (HLA A03.01 [8]): 16.75 min
IC50 (HLA A03.01 [9]): 0.0959 µM

VLDCCISLL
Immunogenicity (# donors/2) [2]: 1 # donors/2

FQNSYTIGL
Immunogenicity (# donors/2) [2]: 2 # donors/2

CC[C@H](C)[C@H](NC(=O)[C@H](CC(C)C)NC(=O)[C@@H](N)CCC(N)=O)C(=O)N[C@@H](CCSC)C(=O)N[C@@H](CCC(N)=O)C(=O)N[C@@H](CC(C)C)C(=O)N[C@@H](CCSC)C(=O)N1CCC[C@H]1C(=O)N[C@@H](Cc1ccccc1)C(=O)O
Stability (half-life (hr.)) (HLA A24.02 [12]): 22.12 min
Stability (half-life (hr.)) (HLA A02.01 [3]; Table 11, EGFR T790M peptides): 20.44 min
IC50 (HLA A02.01 [4]; [13]): 0.193 µM
IC50 (HLA A24.02 [5]): 2.03 µM
IC50 (HLA B08.02): 5.59 µM

CSCC[C@H](NC(=O)[C@H](CC(C)C)NC(=O)[C@H](CCC(N)=O)NC(=O)[C@@H](N)CCSC)C(=O)N1CCC[C@H]1C(=O)N[C@@H](Cc1ccccc1)C(=O)NCC(=O)N[C@@H](CS)C(=O)N[C@@H](CC(C)C)C(=O)O
Stability (half-life (hr.)) (HLA A02.01 [3]; Table 11, EGFR T790M peptides): 22.1 min
IC50 (HLA B07.02): 1.59 µM
IC50 (HLA A02.01 [4]; [13]): 0.116 µM

CSCC[C@H](NC(=O)[C@H](CC(C)C)NC(=O)[C@H](CCC(N)=O)NC(=O)[C@@H](N)CCSC)C(=O)N1CCC[C@H]1C(=O)N[C@@H](Cc1ccccc1)C(=O)NCC(=O)N[C@@H](CS)C(=O)N[C@@H](CC(C)C)C(=O)N[C@@H](CC(C)C)C(=O)O
Stability (half-life (hr.)) (HLA A02.01 [3]; Table 11, EGFR T790M peptides): 22.87 min
IC50 (HLA A02.01 [4]; [13]): 0.0163 µM
IC50 (HLA A24.02 [5]): 18.9 µM

CC[C@H](C)[C@H](NC(=O)[C@H](CC(C)C)NC(=O)[C@H](CCC(N)=O)NC(=O)[C@@H](NC(=O)[C@@H](NC(=O)[C@H](CO)NC(=O)[C@@H](NC(=O)[C@H](CC(C)C)NC(=O)[C@@H](N)CS)[C@@H](C)O)[C@@H](C)O)C(C)C)C(=O)N[C@@H](CCSC)C(=O)O
IC50 (HLA A01.01 [7]): 8.28 µM
IC50 (HLA A02.01 [4]): 0.537 µM

ILNDTGCHYV
Immunogenicity (# donors/2) [2]: 1 # donors/2

LLANDLMLI
Immunogenicity (# donors/2) [2]: 2 # donors/2

QLIMQLMPFG
IC50 (HLA A02.01 [4]; [13]): 5.21 µM
